{"source": "patent US20200261391A1", "about": "“METHODS OF REDUCING THE RISK OF A CARDIOVASCULAR EVENT IN A STATIN-TREATED SUBJECT BY INCREASING SERUM AND PLASMA EPA AND DPA LEVELS” (Amarin Pharmaceuticals Ireland Limited, priority 2019, published 2020)", "tested_on": "patients with elevated triglyceride levels on statin therapy with established cardiovascular disease or at high risk", "assay": "REDUCE-IT trial: time to first occurrence of adjudicated cardiovascular endpoint events, AMR101 4 g daily vs placebo", "assay_type": "in vivo, human", "description": "The following study, also referred to as the REDUCE-IT clinical trial, was a large cardiovascular (CV) outcome trial designed to assess CV risk reduction benefit of AMR101 treatment (commercially known as VASCEPA®) versus placebo on the 5-point primary composite endpoint: CV death, non-fatal stroke, non-fatal myocardial infarction (MI), coronary revascularizations, or unstable angina requiring hospitalization.\nA multi-center, prospective, randomized, double-blind, placebo-controlled, parallel-group study was performed to evaluate the effect of AMR101 (4 g per day) on cardiovascular health and mortality in hypertriglyceridemic patients with cardiovascular disease or at high risk for cardiovascular disease. The intended expanded indication of the study was treatment with AMR101 as an add-on to statin therapy to reduce the risk of cardiovascular events in patients with clinical cardiovascular disease or with multiple risk factors for cardiovascular disease.\nThe primary objective of this study was, in patients at LDL-C goal while on statin therapy, with established cardiovascular disease (CVD) or at high risk for CVD, and hypertriglyceridemia (e.g., fasting triglycerides(TG)≥200 mg/dL and <500 mg/dL), to evaluate the effect of AMR101 4 g daily on time from randomization to first occurrence of any component of the composite of the following major CV events: CV death; nonfatal MI; (including silent MI; electrocardiograms (ECGs) were performed annually for the detection of silent MIs); nonfatal stroke; coronary revascularization; and unstable angina determined to be caused by myocardial ischemia by invasive/non-invasive testing and requiring emergent hospitalization.\nThe key secondary objective of this study was to evaluate the effect of AMR101 4 g daily on the time from randomization to the first occurrence of the composite of following major CV events: CV death, nonfatal MI (including silent MI), and nonfatal stroke.\nOther secondary objectives for this study were to evaluate the effect of therapy on time from randomization to the first occurrence of the following individual or composite endpoints: composite of CV death or nonfatal MI (including silent MI); fatal or nonfatal MI (including silent MI); non-elective coronary revascularization represented as the composite of emergent or urgent classifications; CV death; unstable angina determined to be caused by myocardial ischemia by invasive/non-invasive testing and requiring emergent hospitalization; fatal or nonfatal stroke; composite of total mortality, nonfatal MI (including silent MI), or nonfatal stroke; and total mortality.\nPrimary Efficacy Endpoint: The primary efficacy endpoint was time from randomization to the first occurrence of the composite of the following clinical events: CV death; nonfatal MI (including silent MI; ECGs were performed annually for the detection of silent MIs); nonfatal stroke; coronary revascularization; and unstable angina determined to be caused by myocardial ischemia by invasive/non-invasive testing and requiring emergent hospitalization. The first occurrence of any of these major adverse vascular events during the follow-up period of the study were included in the incidence.\nSecondary Efficacy Endpoints: The key secondary efficacy endpoint was the time from randomization to the first occurrence of the composite of CV death, nonfatal MI (including silent MI), or nonfatal stroke. […]", "key": {"[1]": {"details": "adjudicated tertiary endpoint, listed as AMR101"}, "[2]": {"details": "adjudicated tertiary endpoint, listed as Icosapent Ethyl"}, "[3]": {"details": "vs placebo, median follow up 4.9 years"}, "[4]": {"details": "vs placebo, time to first event"}, "[5]": {"details": "vs placebo, time to first occurrence"}}, "note": "“And” between values parts separate entries of the source, which are not always exact repeats. Equal entries are not always repeated.", "data": [{"molecule": "CC/C=C\\C/C=C\\C/C=C\\C/C=C\\C/C=C\\CCCC(=O)OCC", "note": "[icosapent ethyl, eicosapentaenoic acid ethyl ester]", "values": [{"measurement": "Amputation for PVD, patients with event", "setting": "adjudicated tertiary endpoint", "value": "(0.5%)"}, {"measurement": "Cardiac Arrest, patients with event", "setting": "adjudicated tertiary endpoint", "value": "(0.5%)"}, {"measurement": "Cardiac Arrhythmias Requiring Hospitalization of ≥24 Hours, patients with event", "setting": "adjudicated tertiary endpoint", "value": "(4.6%)"}, {"measurement": "Carotid Revascularization, patients with event", "setting": "adjudicated tertiary endpoint", "value": "(0.8%)"}, {"measurement": "Coronary Revascularization, patients with event", "setting": "adjudicated tertiary endpoint", "value": "(9.2%)"}, {"measurement": "Elective Revascularization, patients with event", "setting": "adjudicated tertiary endpoint", "value": "(4.7%)"}, {"measurement": "Emergent Revascularization, patients with event", "setting": "adjudicated tertiary endpoint", "value": "(1.0%)"}, {"measurement": "Ischemic Stroke, patients with event", "setting": "adjudicated tertiary endpoint", "value": "(2.0%)"}, {"measurement": "New Heart Failure Requiring Hospitalization, patients with event", "setting": "adjudicated tertiary endpoint", "value": "(3.4%)"}, {"measurement": "Primary Endpoint in Patients with Diabetes at Baseline, patients with event", "setting": "adjudicated tertiary endpoint", "value": "(18.1%)"}, {"measurement": "Salvage Revascularization, patients with event", "setting": "adjudicated tertiary endpoint", "value": "(0.0%)"}, {"measurement": "Sudden Cardiac Death, patients with event", "setting": "adjudicated tertiary endpoint", "value": 1.5, "unit": "%"}, {"measurement": "Transient Ischemic Attack, patients with event", "setting": "adjudicated tertiary endpoint", "value": "(1.6%)"}, {"measurement": "Urgent Revascularization, patients with event", "setting": "adjudicated tertiary endpoint", "value": "(4.4%)"}, {"measurement": "Hemorrhagic Stroke, patients with event", "setting": "[1]", "value": 0.3, "unit": "%"}, {"measurement": "New Heart Failure, patients with event", "setting": "[1]", "value": 4.1, "unit": "%"}, {"measurement": "Hemorrhagic Stroke, patients with event", "setting": "[2]", "value": "(0.3%)"}, {"measurement": "New Heart Failure, patients with event", "setting": "[2]", "value": "(4.1%)"}, {"measurement": "Sudden Cardiac Death, patients with event", "setting": "[2]", "value": "(1.5%)"}, {"measurement": "key secondary composite endpoint, patients with event", "setting": "first occurrence of CV death, nonfatal MI or nonfatal stroke, median follow up 4.9 years", "value": 11.2, "unit": "%"}, {"measurement": "primary composite endpoint, patients with event", "setting": "first occurrence of CV death, nonfatal MI, nonfatal stroke, coronary revascularization or unstable angina, median follow up 4.9 years", "value": 17.2, "unit": "%"}, {"measurement": "cardiovascular death, patients with event", "setting": "in vivo", "value": 4.3, "unit": "%"}, {"measurement": "total mortality, patients with event", "setting": "in vivo", "value": 6.7, "unit": "%"}, {"measurement": "key secondary composite endpoint, number needed to treat", "setting": "median follow up 4.9 years", "value": 28}, {"measurement": "primary composite endpoint, number needed to treat", "setting": "median follow up 4.9 years", "value": 21}, {"measurement": "New Onset of Diabetes, patients with event", "setting": "patients with diabetes at baseline excluded", "value": "(3.8%)"}, {"measurement": "Amputation for PVD, HR", "setting": "vs placebo", "value": 1.04}, {"measurement": "Cardiac Arrest, HR", "setting": "vs placebo", "value": 0.52}, {"measurement": "Cardiac Arrhythmias Requiring Hospitalization of ≥24 Hours, HR", "setting": "vs placebo", "value": 1.21}, {"measurement": "Carotid Revascularization, HR", "setting": "vs placebo", "value": 1.18}, {"measurement": "Coronary Revascularization, HR", "setting": "vs placebo", "value": 0.66}, {"measurement": "Elective Revascularization, HR", "setting": "vs placebo", "value": 0.68}, {"measurement": "Emergent Revascularization, HR", "setting": "vs placebo", "value": 0.62}, {"measurement": "Hemorrhagic Stroke, HR", "setting": "vs placebo", "value": 1.28}, {"measurement": "Ischemic Stroke, HR", "setting": "vs placebo", "value": 0.64}, {"measurement": "New Heart Failure Requiring Hospitalization, HR", "setting": "vs placebo", "value": 0.97}, {"measurement": "New Heart Failure, HR", "setting": "vs placebo", "value": 0.95}, {"measurement": "Primary Endpoint in Patients with Diabetes at Baseline, HR", "setting": "vs placebo", "value": 0.77}, {"measurement": "Salvage Revascularization, HR", "setting": "vs placebo", "value": 0.00}, {"measurement": "Sudden Cardiac Death, HR", "setting": "vs placebo", "value": 0.69}, {"measurement": "Transient Ischemic Attack, HR", "setting": "vs placebo", "value": 1.32}, {"measurement": "Urgent Revascularization, HR", "setting": "vs placebo", "value": 0.66}, {"measurement": "cardiac arrest, reduction", "setting": "vs placebo", "value": 48, "unit": "%"}, {"measurement": "cardiovascular death, HR", "setting": "vs placebo", "value": 0.80}, {"measurement": "cardiovascular death, relative risk reduction", "setting": "vs placebo", "value": 20, "unit": "%"}, {"measurement": "composite of cardiovascular death or nonfatal myocardial infarction, RRR", "setting": "vs placebo", "value": 25, "unit": "%"}, {"measurement": "composite of total mortality, nonfatal myocardial infarction, or nonfatal stroke, RRR", "setting": "vs placebo", "value": 23, "unit": "%"}, {"measurement": "fatal or nonfatal myocardial infarction, RRR", "setting": "vs placebo", "value": 31, "unit": "%"}, {"measurement": "fatal or nonfatal stroke, RRR", "setting": "vs placebo", "value": 28, "unit": "%"}, {"measurement": "hospitalization for unstable angina, RRR", "setting": "vs placebo", "value": 32, "unit": "%"}, {"measurement": "myocardial infarction, HR", "setting": "vs placebo", "value": 0.69}, {"measurement": "primary endpoint risk reduction, post hoc analysis excluding patients with diarrhea", "setting": "vs placebo", "value": 25, "unit": "%"}, {"measurement": "stroke, HR", "setting": "vs placebo", "value": 0.72}, {"measurement": "sudden cardiac death, reduction", "setting": "vs placebo", "value": 31, "unit": "%"}, {"measurement": "total mortality, HR", "setting": "vs placebo", "value": 0.87}, {"measurement": "total mortality, relative risk reduction", "setting": "vs placebo", "value": 13, "unit": "%"}, {"measurement": "urgent or emergent revascularization, RRR", "setting": "vs placebo", "value": 35, "unit": "%"}, {"measurement": "key secondary composite endpoint, absolute risk reduction", "setting": "[3]", "value": 3.6, "unit": "%"}, {"measurement": "primary composite endpoint, absolute risk reduction", "setting": "[3]", "value": 4.8, "unit": "%"}, {"measurement": "New Onset of Diabetes, HR", "setting": "vs placebo, patients with diabetes at baseline excluded", "value": 1.04}, {"measurement": "key secondary composite endpoint, relative risk reduction", "setting": "[4]", "value": "26% and 26.5%"}, {"measurement": "primary composite endpoint, relative risk reduction", "setting": "[4]", "value": "25% and 24.8%"}, {"measurement": "key secondary composite endpoint, HR", "setting": "[5]", "value": 0.74}, {"measurement": "primary composite endpoint, HR", "setting": "[5]", "value": 0.75}]}]}
